Results from paper PMC6749389, “Synthesis and In Vitro Anti-Toxoplasma gondii Activity of Novel Thiazolidin-4-one Derivatives” (Molecules, 2019).

Tests used:
[1] = tested on: T. gondii tachyzoites (RH strain); test: In vitro anti-T. gondii activity, [3H]-uracil incorporation assay in infected Hs27 cells; assay type: cell-based, Toxoplasma gondii; details: for IC50: Toxoplasma gondii, T. gondii RH tachyzoites proliferation in Hs27 cells, na = not active in the tested concentration range; for SR (selectivity ratio): ratio of CC50 (L929) to IC50 (T. gondii); for inhibition of proliferation, fold better (lower IC50) than sulfadiazine: relative to sulfadiazine; for inhibition of proliferation, fold better than sulfadiazine + trimethoprim (5:1): relative to sulfadiazine + trimethoprim (5:1)
[2] = Cytotoxic assay (MTT, ISO 10993-5:2009(E)), 24 h treatment; assay type: cell-based; details: L929 mouse fibroblast cells, L929 mouse fibroblasts, values above highest tested concentration extrapolated
Procedure: The L929 mouse fibroblast (ATTC® CCL-1™, Manassas, VA, USA) were culturing according to the ATCC product sheet. […] The cell viability assay were performed precisely according to international standards (ISO 10993-5:2009(E)), using the tetrazolium salt [3-(4,5-dimethylthiazol-2-yl)-2,5-diphenyltetrazolium bromide] (MTT, Sigma-Aldrich) and mouse fibroblasts L929 cells. Cells (1 × 10^4 per well) were treated 24 h with compounds or drug in different concentration range. The optical density at 570 nm on the ELISA reader (Multiskan EX, Labsystems, Vienna, VA, USA), was read. The results were expressed as a percentage of viability compared to untreated cells. […] The CC30/CC50 represents the concentration of tested compounds or drugs that was required for 30% or 50% cells proliferation inhibition in vitro. According to the previously mentioned ISO 10993-5:2009(E) norm, the CC30 value is recognized as non-cytotoxic concentration for the cell line. All experiments were performed in triplicate.

[3] = Solubility under the protocol conditions; assay type: physicochemical; details: compounds dissolved in DMSO and diluted in medium
Procedure: Among the 43 compounds tested derivatives 81, 96, 97, 100–104 were insoluble under the protocol conditions and, consequently, they were eliminated from further experiments.
Compounds were dissolved in dimethyl sulfoxide (DMSO, Sigma-Aldrich, St. Louis, MO, USA) to 125 mM. The final concentration of DMSO in the compounds dilutions was not higher than 1.00%. Drug, sulfadiazine [4-amino-N-(2-pyrimidinyl)benzenesulfonamide] (S8626, Sigma-Aldrich) was dissolved in 1M sodium hydroxide (NaOH, Sigma-Aldrich) to 400 mM. Final concertation of NaOH in sulfadiazine dilutions was not higher than 2.5%. Ready solution sulfadiazine and trimethoprim in weight ratio 5:1 (Sul-Tridin 24%, 200 mg/mL [800 mM] + 40 mg/mL [137.78 mM]– ScanVet Poland). Dilution of the all compounds and drugs were freshly prepared before the cells were exposed in appropriate medium.

Compound	melting point	IC50 [1]	SR (selectivity ratio) [1]	inhibition of proliferation, fold better (lower IC50) than sulfadiazine [1]	CC50 at 24 h [2]	inhibition of proliferation, fold better than sulfadiazine + trimethoprim (5:1) [1]	solubility under the protocol conditions [3]
O=C(O)CC1SC(=NN=Cc2ccc(O)c(Br)c2)N(c2ccc(Cl)cc2)C1=O (centres unmarked) [Compound 87, [2-{[(3-Bromo-4-hydroxyphenyl)methylidene]hydrazinylidene}-3-(4-chlorophenyl)-4-oxo-1,3-thiazolidin-5-yl]acetic acid]	254 to 255 °C	116 µM	3.66	about 90 fold	425 µM		
CCOc1cc(C=NN=C2SC(CC(=O)O)C(=O)N2c2ccc(Cl)cc2)ccc1O (centres unmarked) [Compound 85]	224 to 226 °C	165 µM	4.59		759 µM		
COC(=O)C=C1SC(=NN=Cc2ccc(O)c(Br)c2)N(c2ccccc2)C1=O [Compound 95, Methyl [2-{[(3-bromo-4-hydroxyphenyl)methylidene]hydrazinylidene}-4-oxo-3-phenyl-1,3-thiazolidin-5-ylidene]acetate]	236 to 238 °C	28.3 µM	15.11		428 µM	18 fold	
O=C(O)CC1SC(=NN=Cc2ccc(O)cc2)N(c2ccc(Cl)cc2)C1=O (centres unmarked) [Compound 83, [3-(4-Chlorophenyl)-2-{[(4-hydroxyphenyl)methylidene]hydrazinylidene}-4-oxo-1,3-thiazolidin-5-yl]acetic acid]	234 to 235 °C	271 µM	3.34		906 µM		
Nc1ccc(S(=O)(=O)Nc2ncccn2)cc1 [Sulfadiazine, 4-amino-N-(2-pyrimidinyl)benzenesulfonamide, reference compound]		10900 µM	≥0.92		≥ 10000 µM		
COc1cc(C=NN=C2SC(CC(=O)O)C(=O)N2c2ccc(Cl)cc2)ccc1O (centres unmarked) [Compound 84, [3-(4-Chlorophenyl)-2-{[(4-hydroxy-3-methoxyphenyl)methylidene]hydrazinylidene}-4-oxo-1,3-thiazolidin-5-yl]acetic acid]	254 to 256 °C	220 µM	3.76		827 µM		
COC(=O)C=C1SC(=NN=Cc2ccc(O)c(OC)c2)N(c2ccccc2)C1=O [Compound 92, Methyl [2-{[(4-hydroxy-3-methoxyphenyl)methylidene]hydrazinylidene}-4-oxo-3-phenyl-1,3-thiazolidin-5-ylidene]acetate]	210 to 212 °C	180 µM	2.69		486 µM		
O=C(O)CC1SC(=NN=Cc2ccccc2O)N(c2ccc(Cl)cc2)C1=O (centres unmarked) [Compound 81, [3-(4-Chlorophenyl)-2-{[(2-hydroxyphenyl)methylidene]hydrazinylidene}-4-oxo-1,3-thiazolidin-5-yl]acetic acid]	234 to 236 °C						insoluble
O=C(O)CC1SC(=NN=Cc2cccc(O)c2)N(c2ccc(Cl)cc2)C1=O (centres unmarked) [Compound 82, [3-(4-Chlorophenyl)-2-{[(3-hydroxyphenyl)methylidene]hydrazinylidene}-4-oxo-1,3-thiazolidin-5-yl]acetic acid]	226 to 228 °C	263 µM	2.49		656 µM		
CCOc1cc(C=NN=C2SC(=CC(=O)OC)C(=O)N2c2ccccc2Cl)ccc1O [Compound 96, Methyl [3-(2-chlorophenyl)-2-{[(3-ethoxy-4-hydroxyphenyl)methylidene]hydrazinylidene}-4-oxo-1,3-thiazolidin-5-ylidene]acetate]	216 to 218 °C						insoluble
COC(=O)C=C1SC(=NN=Cc2ccccc2O)N(c2ccccc2)C1=O [Compound 89, Methyl [2-{[(2-hydroxyphenyl)methylidene]hydrazinylidene}-4-oxo-3-phenyl-1,3-thiazolidin-5-ylidene]acetate]	242 to 244 °C				304 µM		
CCOc1cc(C=NN=C2SC(=CC(=O)OC)C(=O)N2c2ccccc2)ccc1O [Compound 93, Methyl [2-{[(3-ethoxy-4-hydroxyphenyl)methylidene]hydrazinylidene}-4-oxo-3-phenyl-1,3-thiazolidin-5-ylidene]acetate]	190 to 192 °C	191 µM	2.42		463 µM		
O=C1CSC(=NN=Cc2cccc(O)c2)N1c1cccc(Cl)c1 [Compound 53, 3-(3-Chlorophenyl)-2-{[(3-hydroxyphenyl)methylidene]hydrazinylidene}-1,3-thiazolidin-4-one]	198 to 200 °C				113 µM		
O=C1CSC(=NN=Cc2cccc(O)c2)N1c1ccc(F)cc1 [Compound 68, 3-(4-Fluorophenyl)-2-{[(3-hydroxyphenyl)methylidene]hydrazinylidene}-1,3-thiazolidin-4-one]	204 to 206 °C				180 µM		
O=C(O)CC1SC(=NN=Cc2ccc(O)c(Br)c2)N(c2ccccc2)C1=O (centres unmarked) [Compound 80, [2-{[(3-Bromo-4-hydroxyphenyl)methylidene]hydrazinylidene}-4-oxo-3-phenyl-1,3-thiazolidin-5-yl]acetic acid]	252 to 254 °C				≥ 1000 µM		
O=C1CSC(=NN=Cc2cccc(O)c2)N1c1ccc(Br)cc1 [Compound 65, 3-(4-Bromophenyl)-2-{[(3-hydroxyphenyl)methylidene]hydrazinylidene}-1,3-thiazolidin-4-one]	242 to 244 °C				83.5 µM		
COc1cc(C=NN=C2SC(CC(=O)O)C(=O)N2c2ccc(Cl)cc2Cl)ccc1O (centres unmarked) [Compound 88, [3-(2,4-Dichlorophenyl)-2-{[(4-hydroxy-3-methoxyphenyl)methylidene]hydrazinylidene}-4-oxo-1,3-thiazolidin-5-yl]acetic acid]	226 to 228 °C	129 µM	4.37	about 90 fold	566 µM		
O=C1CSC(=NN=Cc2cccc(O)c2)N1c1ccccc1 [Compound 42, 2-{[(3-Hydroxyphenyl)methylidene]hydrazinylidene}-3-phenyl-1,3-thiazolidin-4-one]	235 to 236 °C				234 µM		
COC(=O)C=C1SC(=NN=Cc2ccccc2O)N(c2ccc(Cl)cc2)C1=O [Compound 97, Methyl [3-(4-chlorophenyl)-2-{[(2-hydroxyphenyl)methylidene]hydrazinylidene}-4-oxo-1,3-thiazolidin-5-ylidene]acetate]	214 to 216 °C						insoluble
COC(=O)C=C1SC(=NN=Cc2ccc(O)cc2)N(c2ccccc2)C1=O [Compound 91, Methyl [2-{[(4-hydroxyphenyl)methylidene]hydrazinylidene}-4-oxo-3-phenyl-1,3-thiazolidin-5-ylidene]acetate]	222 to 224 °C	92.9 µM	5.31		493 µM		
O=C(O)CC1SC(=NN=Cc2ccc(O)c(Cl)c2)N(c2ccc(Cl)cc2)C1=O (centres unmarked) [Compound 86, [2-{[(3-Chloro-4-hydroxyphenyl)methylidene]hydrazinylidene}-3-(4-chlorophenyl)-4-oxo-1,3-thiazolidin-5-yl]acetic acid]	256 to 257 °C	178 µM	≥5.63		≥ 1000 µM		
COC(=O)C=C1SC(=NN=Cc2ccc(O)c(Cl)c2)N(c2ccccc2)C1=O [Compound 94, Methyl [2-{[(3-chloro-4-hydroxyphenyl)methylidene]hydrazinylidene}-4-oxo-3-phenyl-1,3-thiazolidin-5-ylidene]acetate]	238 to 240 °C	27.7 µM	17.07		474 µM	18 fold	
O=C1CSC(=NN=Cc2ccc(O)cc2)N1c1ccc(Br)cc1 [Compound 66, 3-(4-Bromophenyl)-2-{[(4-hydroxyphenyl)methylidene]hydrazinylidene}-1,3-thiazolidin-4-one]	288 to 290 °C				247 µM		
O=C1CSC(=NN=Cc2ccc(O)cc2)N1c1ccc(Cl)cc1 [Compound 59, 3-(4-Chlorophenyl)-2-{[(4-hydroxyphenyl)methylidene]hydrazinylidene}-1,3-thiazolidin-4-one]	280 to 282 °C				318 µM		
